Experimental findings from patent publication US20040157930A1, “Histone deacetylase enzyme-inhibiting derivatives of hydroxamic acid as new cytokine synthesis-inhibiting anti-inflammatory drugs” (priority 2001, published 2004) are described below.

For the assay, the system named is mouse peritoneal macrophages. Briefly: Nitric oxide production from mouse peritoneal macrophages (Griess). In kind it is cell-based, C57BLy6 mice. To be noted: TNF-α plus IFN-γ stimulation, 24 h. As for the experimental part: C57BLy6 mice were injected i.p. with 1 ml of sterile thioglycolate broth and killed after 5 days, and macrophages were isolated using instillation of 10 ml of ice-cold PBS into the peritoneal cavity. The cells were centrifuged (350×g) and 3 ml of erythrocyte lysing reagent (PharMingen) was added for 10 min.
Seven milliliters of DMEM containing 5% FCS was added and the cells were centrifuged at 4° C. The cells were resuspended in DMEM at 1 million per ml and 0.5 ml were added to wells of a 48-well plate. […] After 24 h, NO levels in the supernatant were determined using the Griess reagent as described in Am.J.Physiol.Cell Physiol. (2001), 280, C441-C450.
A general note: The Griess reaction detects nitrite, a stable product of nitric oxide.

For the molecule `O=C(CCCCCCC(=O)Nc1ccccc1)NO` [SAHA, suberoylanilide hydroxamic acid], the “reduction of NO production” value reads like this: (200 nM) 50%; (400 nM) 80%; (800 nM) 85%.
